Assay results published in US9783585B2, “Compositions and methods for increasing the expression and signalling of proteins on cell surfaces” (JOHNS HOPKINS UNIVERSITY, priority 2013, dated 2017).

Assays:
Olfr691 = biological target: T1, Olfr691 (Mus musculus, UniProt Q8VGW5); test: Luciferase reporter assay (CRE Firefly:Renilla), Olfr691 constructs; format: cell-based; conditions: 0.1-5 mM isovaleric acid
T1 construct: The other full-length ORs were amplified using primers which added appropriate restriction sites; expressed in transfected cells; host or cells: HEK293T
T1 sequence (Q8VGW5 1-322): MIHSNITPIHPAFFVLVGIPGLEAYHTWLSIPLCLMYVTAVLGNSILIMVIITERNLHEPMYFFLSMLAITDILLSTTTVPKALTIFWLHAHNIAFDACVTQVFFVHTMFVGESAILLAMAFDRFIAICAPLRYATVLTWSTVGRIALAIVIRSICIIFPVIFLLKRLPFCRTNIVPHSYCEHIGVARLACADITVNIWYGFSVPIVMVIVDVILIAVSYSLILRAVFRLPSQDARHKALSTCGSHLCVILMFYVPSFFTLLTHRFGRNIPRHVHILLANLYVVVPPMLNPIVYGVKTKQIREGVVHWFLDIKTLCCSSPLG
Protocol: (§1) Luciferase Assay. The luciferase assay was performed as previously described. Briefly, ORs were transfected into HEK293T cells along with constructs encoding for CREB-dependent luciferase (Firefly) and a constitutively expressed luciferase (Renilla). OR activation leads to a rise in cAMP which drives an increase in Firefly luciferase expression. Firefly activity is normalized to the activity of the Renilla luciferase to control for variation in cell number and transfection efficiency. Data were collected using a FLUOstar Omega automated platereader (BMG LabTech, Cary, N.C.). For some experiments, RTP1S was also transfected.
Statistical Analysis. One-way ANOVA analysis followed by the Student-Newman Keuls test was performed on the luciferase reporter assay to compare the doses of isovaleric acid (0.1-5 mM) or eugenol (100-300 μM) to the non-treated control (0 μM). As each condition was performed in triplicate, the analyses were done with an n=3, and P values≦0.05 were deemed significant. One-way ANOVE followed by Student-Newman Keuls was also used to analyze the surface expression data in FIG. 7. A Student T-Test was performed on the ELISA to assess the significance of the increased protein expression (Control construct vs. Lucy construct for each OR, n=4 for each condition). P values≦0.05 were deemed significant. In both the luciferase reporter assay and the ELISA, the error bars represent the SEM.
To determine whether Lucy-tagged ORs expressed on the cell surface can still respond to their ligands in the absence of RTP1S, and to ensure that the Lucy tag is not altering ligand binding or detection, we assayed for a functional ligand response using a luciferase reporter assay. In this assay, OR-ligand binding leads to an increase in cAMP which drives the expression of a CRE luciferase. An increase in the Firefly (CRE-dependent luciferase): Renilla (constitutively activated luciferase) ratio indicates OR activation. Previously, it was determined that Olfr691 responds to isovaleric acid. […]

mOREG = biological target: T2, mOREG (Mus musculus, UniProt Q920P2); test: Luciferase reporter assay (CRE Firefly:Renilla), mOREG constructs; format: cell-based; conditions: Rho-mOREG, Lucy-mOREG and Lucy-Rho-mOREG, no RTP1S, eugenol 100-300 μM, P≦0.05, 300 μM vs 0 μM
T2 construct: The mOR-EG full-length construct, containing N-terminal Flag/Rho tags; expressed in transfected cells; host or cells: HEK293T
T2 sequence (Q920P2 1-313): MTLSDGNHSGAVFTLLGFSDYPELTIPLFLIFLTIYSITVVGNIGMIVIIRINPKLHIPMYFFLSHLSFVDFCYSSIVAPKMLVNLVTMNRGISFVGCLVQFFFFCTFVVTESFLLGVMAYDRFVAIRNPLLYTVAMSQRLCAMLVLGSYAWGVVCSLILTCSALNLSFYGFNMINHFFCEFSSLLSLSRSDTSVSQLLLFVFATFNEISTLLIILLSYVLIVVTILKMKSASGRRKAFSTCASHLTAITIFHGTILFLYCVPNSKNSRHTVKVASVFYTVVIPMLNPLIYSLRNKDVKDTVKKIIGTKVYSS
Protocol: as §1
Statistical Analysis. One-way ANOVA analysis followed by the Student-Newman Keuls test was performed on the luciferase reporter assay to compare the doses of isovaleric acid (0.1-5 mM) or eugenol (100-300 μM) to the non-treated control (0 μM). As each condition was performed in triplicate, the analyses were done with an n=3, and P values≦0.05 were deemed significant. One-way ANOVE followed by Student-Newman Keuls was also used to analyze the surface expression data in FIG. 7. […]
As mOREG is one of the ORs that reach the cell surface under every condition tested, we expressed the OR with and without the Lucy and Rho tags and assessed its response to eugenol.

OR activation (Firefly:Renilla ratio) (Olfr691; Lucy-Rho-Olfr691 with and without RTP, P<0.007 vs 0 mM)	OR activation (Firefly:Renilla ratio) (Olfr691; Rho-Olfr691 co-expressed with RTP1S, P≦0.002 vs 0 mM)	SMILES	OR activation (Firefly:Renilla ratio) (Olfr691; Rho-Olfr691 without RTP1S)	OR activation (Firefly:Renilla ratio) (mOREG)
dose-dependent manner	dose-dependent increase	CC(C)CC(=O)O [isovaleric acid]	not significantly activated at any concentration	–
–	–	C=CCc1ccc(O)c(OC)c1 [eugenol]	–	dose-dependent activation
